# Like-named read-outs stand apart in the source and are kept apart here.
# Columns and labels:
# [1] = test system: human cells; settings: literature ref. 15; cited from earlier work
# [2] = in vitro; settings: human, ahh-1 cells, RELATIVE SURVIVAL; for viability at 48 h, 10 µM: 10 μM × 48 hours; for viability at 48 h, 20 µM: 20 μM × 48 hours
# [3] = test system: AHH-1 cells
# [4] = in vitro; format: cell-based, human; settings: human, 6-tg resistant ahh-1 cells, 6-TG^r AHH-1 cells, read-out: Relative Survival
# Source text: (§1) Preferential survival during toxic treatment tested by exposing two sets of cells to varying concentrations of ICR-191.
# [5] = test system: 6-TG^r AHH-1 cells; assay: in vitro; format: cell-based, human; settings: varying concentrations of ICR-191
# Source text: as §1
# [6] = test system: AHH-1 cells; assay: Phenotypic expression of ICR-191 induced mutation; format: cell-based, human
# Description: AHH-1 cell cultures were contacted with ICR-191 (Polysciences Inc, Warrington Pa.) which is a known mutagen comprising an acridine mustard derivative, at varying concentrations ranging up to 1.0 μM, for 24 hours. The cultures were resuspended in growth medium and allowed to grow. At different times after treatment, the cells were contacted with 6-TG to determine the mutant fraction.
# [7] = in vitro; format: cell-based; settings: human, ahh-1 cells, read-out: Relative Survival
# Source text: as §1
# [8] = test system: AHH activity of AHH-1 cells; format: cell-based, human
# Description: The quantity of 3-hydroxy BaP was measured by fluorescent intensity activated by a light wavelength of 396 nm and measured at 522 nm using a spectrofluorimeter (Farrand Model Mk-1, Valhalla, N.Y.).
# After growth of the cells in culture medium with gentamycin and kanamycin, the cells were plated in microtiter plates at a density of about 0.2 cells per well. Colonies were isolated and characterized for BaP-induced growth inhibition. A total of 47 colonies were isolated and contacted with 40 uM BaP. In its normal state, BaP is not highly cytotoxic or mutagenic; however, if metabolized by oxidative activity into one or more epoxides or phenols, the metabolites tend to be toxic and mutagenic.
# 6-TG resistant clones were characterized for AHH activity by measuring the rate of production of 3-OH benzopyrene, a fluorescent metabolite of BaP which is created by AHH activity.
# [9] = in vitro; format: cell-based, human; settings: human, g6-a5 cells, G6-A5 clone, read-out: Relative Survival
# Source text: (§2) Following the benzo(ghi)perylene selection and after plating in microtitre plates, colonies were isolated and analyzed for MFO activity and PE. […] Several of these subclones were used to detect the mutagenic activity of benzo(a)pyrene, a chemical known to require oxidative metabolism for mutagenicity.
# [10] = test system: G6-A5 cells; assay: in vitro; format: cell-based, human; settings: several subclones, exposed directly
# Source text: as §2
# [11] = test system: AHH activity of 6-TG resistant AHH-1 clones; assay: AHH activity induced by BaP in AHH-1 cells resistant to 6-TG; format: cell-based, human; settings: 10 μM BaP, 24 hours
# Description: 3-hydroxy BaP per 10^6 cells per minute. The quantity of 3-hydroxy BaP was measured by fluorescent intensity activated by a light wavelength of 396 nm and measured at 522 nm using a spectrofluorimeter (Farrand Model Mk-1, Valhalla, N.Y.). This could be induced to about 0.3 pmole of 3-hydroxy BaP per 10^6 cells per minute.
# 6-TG resistant clones were characterized for AHH activity by measuring the rate of production of 3-OH benzopyrene, a fluorescent metabolite of BaP which is created by AHH activity. […].
# [12] = 0.3 μM × 24 hours, induction BP
compound,measurement,setting,value
"c1cc2cccc3c4cccc5cccc(c(c1)c23)c54 [Per, perylene]",mutagenicity for human cells,[1],not a mutagen for human cells
same,"viability at 48 h, 10 µM",[2]; induction BNF,89%
same,"viability at 48 h, 10 µM",[2]; induction none,93%
same,"viability at 48 h, 20 µM",[2]; induction BNF,89%
same,"viability at 48 h, 20 µM",[2]; induction none,95%
same,"MUTANT FRACTION × 10^6, MEAN ± STD.DEV.","[3]; 10 μM × 48 hours, induction BNF",2.7 ± 0.6 × 10^6
same,"MUTANT FRACTION × 10^6, MEAN ± STD.DEV.","[3]; 10 μM × 48 hours, induction none",3.2 ± 0.75 × 10^6
same,"MUTANT FRACTION × 10^6, MEAN ± STD.DEV.","[3]; 20 μM × 48 hours, induction BNF",2.7 ± 0.6 × 10^6
same,"MUTANT FRACTION × 10^6, MEAN ± STD.DEV.","[3]; 20 μM × 48 hours, induction none",1.9 ± 0.5 × 10^6
COc1ccc2nc3cc(Cl)ccc3c(NCCCNCCCl)c2c1 [ICR-191],viability at 24 h,[4]; 0.25 μg/ml at 24 hrs,48%
same,viability at 24 h,[4]; 0.5 μg/ml at 24 hrs,20%
same,viability at 24 h,[4]; 1.0 μg/ml at 24 hrs,14%
same,difference in survival rate between non-resistant and 6-TG resistant AHH-1 cells,[5],did not reach the level of statistical significance
same,time to full expression of induced mutation,"[6]; ICR-191 up to 1.0 μM, 24 hours",≤ 6 days
same,mutant fraction stability after full expression,[6]; up to 14 days,remained relatively stable
same,"viability at 24 h, 0.63 µM",[2]; 0.63 μM × 24 hours,65%
same,"viability at 24 h, 1.25 µM",[2]; 1.25 μM × 24 hours,48%
same,"viability at 24 h, 2.5 µM",[2]; 2.5 μM × 24 hours,13%
same,"MUTANT FRACTION × 10^6, MEAN ± STD.DEV.",[3]; 0.63 μM × 24 hours,62 ± 11 × 10^6
same,"MUTANT FRACTION × 10^6, MEAN ± STD.DEV.",[3]; 1.25 μM × 24 hours,116 ± 17 × 10^6
same,"MUTANT FRACTION × 10^6, MEAN ± STD.DEV.",[3]; 2.5 μM × 24 hours,147 ± 28 × 10^6
same,viability at 24 h,[7]; 0.25 μg/ml at 24 hrs,65%
same,viability at 24 h,[7]; 0.5 μg/ml at 24 hrs,48%
same,viability at 24 h,[7]; 1.0 μg/ml at 24 hrs,13%
"c1ccc2c(c1)cc1ccc3cccc4ccc2c1c34 [BaP, benzo(a)pyrene]",AHH Activity Induced by B(α)P,[8],2.04 pmole 3OHBP/10^6 cells/minute
same,induction of AHH activity,[8],inducers
same,"viability at 24 h, 0.3 µM",[2]; [12],87%
same,"viability at 24 h, 1 µM","[2]; 1 μM × 24 hours, induction BP",102%
same,"viability at 24 h, 3 µM","[2]; 3 μM × 24 hours, induction BP",74%
same,"viability at 24 h, 10 µM","[2]; 10 μM × 24 hours, induction BP",82%
same,"viability at 24 h, 30 µM","[2]; 30 μM × 24 hours, induction BP",75%
same,"MUTANT FRACTION × 10^6, MEAN ± STD.DEV.",[3]; [12],3.4 ± 0.5 × 10^6
same,"MUTANT FRACTION × 10^6, MEAN ± STD.DEV.","[3]; 1 μM × 24 hours, induction BP",4.9 ± 0.9 × 10^6
same,"MUTANT FRACTION × 10^6, MEAN ± STD.DEV.","[3]; 3 μM × 24 hours, induction BP",6.1 ± 1 × 10^6
same,"MUTANT FRACTION × 10^6, MEAN ± STD.DEV.","[3]; 10 μM × 24 hours, induction BP",12.7 ± 1.5 × 10^6
same,"MUTANT FRACTION × 10^6, MEAN ± STD.DEV.","[3]; 30 μM × 24 hours, induction BP",18.2 ± 2.1 × 10^6
same,viability at 24 h,[9]; 0.1 μg/ml,37%
same,viability at 24 h,"[9]; 0.2 μg/ml, 24 hour treatment",41%
same,mutation of G6-series subclones to a statistically significant degree,[10],mutated to a statistically significant degree
same,AHH Activity Induced by B(α)P,[11]; clone BP-1,1.64 pmole 3OHBP/10^6 cells/minute
same,AHH Activity Induced by B(α)P,[11]; clone BP-2,2.36 pmole 3OHBP/10^6 cells/minute
same,AHH Activity Induced by B(α)P,[11]; clone BP-3,1.88 pmole 3OHBP/10^6 cells/minute
same,AHH Activity Induced by B(α)P,[11]; clone BP-4,2.76 pmole 3OHBP/10^6 cells/minute
same,AHH Activity Induced by B(α)P,[11]; clone BP-5,0.72 pmole 3OHBP/10^6 cells/minute
same,AHH Activity Induced by B(α)P,[11]; clone BP-6,1.88 pmole 3OHBP/10^6 cells/minute
same,AHH Activity Induced by B(α)P,[11]; clone BP-7,1.84 pmole 3OHBP/10^6 cells/minute
same,AHH Activity Induced by B(α)P,[11]; mean TG^R clones,1.87 pmole 3OHBP/10^6 cells/minute
